According to patent US11466008B2, “Co-crystals of neflamapimod (VX-745)” (EIP Pharma, LLC, priority 2017, dated 2022):
Converted amounts (≈) assume the structure as drawn.

Legend:
[1] = Dissolution study in FeSSIF at ambient temperature (HPLC; XRPD of remaining solids); conditions: for Concentration: FeSSIF; for Concentration / ending solubility / peak solubility: ambient temperature; for ending solubility / peak solubility: medium: FeSSIF
Description: (§1) The first dissolution medium tested was fasted state simulated intestinal fluid (FaSSIF) at ambient temperature. […] The second dissolution medium tested was fed state simulated intestinal fluid (FeSSIF) at ambient temperature.
(§2) Upon the completion of each experiment, the remaining solid was recovered and analyzed by XRPD.
(§3) High-Performance Liquid Chromatography (HPLC) Analyses.

[2] = Dissolution study in FaSSIF at ambient temperature (HPLC; XRPD of remaining solids); conditions: for Concentration: FaSSIF, 3 hrs; for Concentration / ending solubility / peak solubility: ambient temperature; for ending solubility / peak solubility: medium: FaSSIF
Description: as §1, §2, §3

[3] = Dissolution study in water at ambient temperature (HPLC); assay type: physicochemical
Description: HPLC analyses were carried out on an Agilent 1100 series instrument equipped with a UV detector using the following materials and operating parameters:
Dissolution studies were carried out for VX-745 at ambient temperature using water, as described by the HPLC Analysis protocol described above.
Dissolution studies were carried out for the CC-6 at ambient temperature using water, as described by the HPLC Analysis protocol described above.
Dissolution studies were carried out for the CC-11 at ambient temperature using water, as described by the HPLC Analysis protocol described above.

[4] = Estimated solubility of VX-745 in solvents (solvent aliquot addition, visual inspection); assay type: physicochemical; conditions: thermodynamic from solid
Description: Solubilities of VX-745 in several solvents were estimated. The experiments were carried out by adding test solvents in aliquots to weighed portions of solid. Whether dissolution had occurred was judged by visual inspection after addition of each solvent aliquot. Solubility numbers were calculated by dividing the total amount of solvent used to dissolve the sample by the weight of the sample. The actual solubilities may be greater than the numbers calculated because of the use of solvent aliquots that were too large or because of slow dissolution rates. […] The solubility number is expressed as “greater than or equal to” if dissolution occurred on addition of the first solvent aliquot.

[5] = FeSSIF (fed state simulated intestinal fluid), fessif, thermodynamic from solid
[6] = FaSSIF (fasted state simulated intestinal fluid), fassif, thermodynamic from solid

O=c1ncn2nc(Sc3ccc(F)cc3F)ccc2c1-c1c(Cl)cccc1Cl.[Cl][Zn][Cl] [CC-18] showed a Concentration ([1]; 2 mins (Table 17)) of 88500 ng/mL, a Concentration ([1]; 5 mins (Table 17)) of 68530 ng/mL and a Concentration ([1]; 10 mins (Table 17)) of 56840 ng/mL. It also gave a Concentration ([1]; 15 mins (Table 17)) of 59400 ng/mL, a Concentration ([1]; 25 mins (Table 17)) of 47550 ng/mL and a Concentration ([1]; 40 mins (Table 17)) of 50990 ng/mL. For the same molecule, the Concentration ([1]; 1 hr (Table 17)) was 47830 ng/mL, the Concentration ([1]; 2 hrs (Table 17)) was 50170 ng/mL and the Concentration ([1]; 3 hrs (Table 17)) was 47340 ng/mL. It also gave a Concentration ([1]; 4 hrs (Table 17)) of 49240 ng/mL, a Concentration ([1]; 24 hrs (Table 17)) of 34180 ng/mL and an ending solubility [1] of 34.18 µg/mL. For the same molecule, the peak solubility [1] was 88.50 µg/mL, the Concentration [2] was 23630 ng/mL and the ending solubility [2] was 22.57 µg/mL. It also gave a peak solubility [2] of 34.49 µg/mL.
For O=C(O)CCCC(=O)O.O=c1ncn2nc(Sc3ccc(F)cc3F)ccc2c1-c1c(Cl)cccc1Cl [CC-6], the Concentration ([1]; 3 mins) was 1280 ng/mL, the ending solubility [1] was 2.38 µg/mL and the peak solubility [1] was 1.87 µg/mL. It also gave a Solubility ([3]; 2 mins) of 23.78 µg/mL, a Solubility ([3]; 5 mins) of 39.17 µg/mL and a Solubility ([3]; 10 mins) of 51.39 µg/mL. The Solubility ([3]; 15 mins) was 67.49 µg/mL, the Solubility ([3]; 25 mins) was 68.93 µg/mL and the Solubility ([3]; 40 mins) was 65.28 µg/mL. The Solubility ([3]; 1 hr) was 59.85 µg/mL, the Solubility ([3]; 2 hrs) was 54.11 µg/mL and the Solubility ([3]; 3 hrs) was 50.75 µg/mL. The Solubility ([3]; 4 hrs) was 57.07 µg/mL, the ending solubility [2] was 1.59 µg/mL and the peak solubility [2] was 3.75 µg/mL.
O=c1ncn2nc(Sc3ccc(F)cc3F)ccc2c1-c1c(Cl)cccc1Cl.Oc1ccccc1 [CC-11] gave a Solubility ([3]; 2 mins) of 10.19 µg/mL, a Solubility ([3]; 5 mins) of 57.50 µg/mL and a Solubility ([3]; 10 mins) of 43.26 µg/mL. For the same molecule, the Solubility ([3]; 15 mins) was 36.28 µg/mL, the Solubility ([3]; 25 mins) was 35.33 µg/mL and the Solubility ([3]; 40 mins) was 21.33 µg/mL. It also gave a Solubility ([3]; 1 hr) of 15.09 µg/mL, a Solubility ([3]; 2 hrs) of 17.11 µg/mL and a Solubility ([3]; 3 hrs) of 12.30 µg/mL. It also gave a Solubility ([3]; 4 hrs) of 13.98 µg/mL.
Molecule O=c1ncn2nc(Sc3ccc(F)cc3F)ccc2c1-c1c(Cl)cccc1Cl [VX-745, 5-(2,6-dichlorophenyl)-2-(2,4-difluorophenylthio)-6H-pyrimido[1,6-b]pyridazin-6-one] has a Solubility ([4]; organic solvent or mixture, solvent acetone) of 7000 µg/mL (≈ 16000 µM), a Solubility ([4]; organic solvent or mixture, solvent acetonitrile) of 9000 µg/mL (≈ 20600 µM) and a Solubility ([4]; organic solvent or mixture, solvent ethanol) of 2000 µg/mL (≈ 4580 µM). It also gave a Solubility ([4]; organic solvent or mixture, solvent ethyl acetate) of less than 1000 µg/mL, a Solubility ([4]; organic solvent or mixture, solvent isopropyl alcohol) of 1000 µg/mL (≈ 2290 µM) and a Solubility ([4]; organic solvent or mixture, solvent methanol) of 10000 µg/mL (≈ 22900 µM). It also gave a Solubility ([4]; organic solvent or mixture, solvent tetrahydrofuran (THF)) of 4000 µg/mL (≈ 9170 µM), a Solubility ([4]; solvent water) of less than 1000 µg/mL and a solubility at 3 h [1, 5] of 21.4 µg/mL (≈ 48.9 µM). The solubility at 24 h [1, 5] was 14 µg/mL (≈ 32.1 µM), the Concentration ([1]; 3 hrs) was 21350 ng/mL and the solubility at 2 min ([3]; thermodynamic from solid, 2 mins) was 11.3 µg/mL (≈ 25.9 µM). The solubility at 5 min ([3]; thermodynamic from solid, 5 mins) was 15.7 µg/mL (≈ 35.9 µM), the solubility at 10 min ([3]; thermodynamic from solid, 10 mins) was 14.9 µg/mL (≈ 34.2 µM) and the solubility at 15 min ([3]; thermodynamic from solid, 15 mins) was 17.8 µg/mL (≈ 40.8 µM). It also gave a solubility at 25 min ([3]; thermodynamic from solid, 25 mins) of 15.5 µg/mL (≈ 35.6 µM), a solubility at 40 min ([3]; thermodynamic from solid, 40 mins) of 10.7 µg/mL (≈ 24.5 µM) and a solubility at 1 h ([3]; thermodynamic from solid, 1 hr) of 6.59 µg/mL (≈ 15.1 µM). The solubility at 2 h ([3]; thermodynamic from solid, 2 hrs) was 5.67 µg/mL (≈ 13 µM), the solubility at 3 h ([3]; thermodynamic from solid, 3 hrs) was 6.32 µg/mL (≈ 14.5 µM) and the solubility at 4 h ([3]; thermodynamic from solid, 4 hrs) was 11.3 µg/mL (≈ 25.9 µM). The solubility at 5 min [2, 6] was 17.8 µg/mL (≈ 40.8 µM), the solubility at 24 h [2, 6] was 9.07 µg/mL (≈ 20.8 µM) and the Concentration [2] was 5810 ng/mL.
